This note sets out measurements from patent publication US20210395210A1, “INHIBITION OF BACTERIAL CHAPERONIN SYSTEMS” (THE TRUSTEES OF INDIANA UNIVERSITY, priority 2018, published 2021).

SMILES strings stand for the structures. Like-named read-outs stand apart in the source and are kept apart here.

In one series the target is T1, E. coli GroEL/ES (Escherichia coli, UniProt P0A6F5).
T1 construct: made in house; host or cells: GroEL in E. coli DH5α; GroES in E. coli BL21 (DE3)
Put plainly: GroEL/ES-mediated dRho refolding assay. The format is biochemical. The protocol: Reagent preparation: For this assay, five primary reagent stocks were prepared: 1) GroEUES-dRho binary complex stock; 2) ATP initiation stock; 3) thiocyanate enzymatic assay stock; 4) formaldehyde quench stock; 5) ferric nitrate reporter stock. Denatured rhodanese (dRho) was prepared by 3-fold dilution of rhodanese (Roche product #R1756, diluted to 10 mg/mL with H2O) with denaturant buffer (12 M Urea, 50 mM Tris-HCl, pH 7.4, and 10 mM DTT). Rhodanese was completely denatured by incubating at room temperature for 45 min. The binary complex solution was prepared by slowly adding the dRho stock to a stirring stock of concentrated GroEL in modified folding buffer (50 mM Tris-HCl, pH 7.4, 50 mM KCl, 10 mM MgCl2, 5 mM Na2S2O3, and 1 mM DTT). The solution was centrifuged at 16,000×g for 5 minutes, and the supernatant was collected and added to a solution of GroES in modified folding buffer to give final protein concentrations of 100 nM GroEL, 120 nM GroES, and 80 nM dRho. The binary complex stock was prepared immediately prior to use. For the ATP initiation stock, ATP solid was diluted into modified folding buffer to a final concentration of 2.0 mM. The thiocyanate enzymatic assay stock was prepared to contain 70 mM KH2PO4, 80 mM KCN, and 80 mM Na2S2O3 in water. The formaldehyde quench solution contained 30% formaldehyde in water. The ferric nitrate reporter stock contained 8.5% w/v Fe(NO3)3 and 11.3% v/v HNO3 in water.
Assay Protocol: First, 10 μL aliquots of the GroEL/ES-dRho complex stock were dispensed into clear, 384-well polystyrene plates. […] The chaperonin-mediated refolding cycle was initiated by addition of 10 μL of ATP stock (reagent concentrations during refolding cycle: 50 nM GroEL, 60 nM GroES, 40 nM dRho, 1 mM ATP, and compounds of 250 μM to 114 nM, 3-fold dilution series). After incubating for 45 minutes at 37° C. for the refolding cycle, 30 μL of the thiocyanate enzymatic assay stock was added and incubated for 60 min at R.T. for the refolded rhodenase enzymatic reporter reaction. The reporter reaction was quenched by adding 10 μL of the formaldehyde quench stock, and then 40 μL of the ferric nitrate reporter stock was added to quantify the amount of thiocyanate produced during the enzymatic reporter reaction, which is proportional to the amount of dRho refolded by GroEL/ES. After incubating at R.T. for 15 min, the absorbance by Fe(SCN)3 was measured at 460 nm using a Molecular Devices SpectraMax Plus384 microplate reader. A second set of baseline control plates were prepared analogously, but without GroEL/ES-dRho protein binary solution, to correct for possible interference from compound absorbance or turbidity. […] Results presented represent the averages of IC50 values obtained from at least quadriplicate (duplicate of duplicate) replicates.
After generating the compound library, we next employed a series of well-established biochemical assays to evaluate compound inhibitory effects against the GroEUES chaperonin system (See FIG. 6 and FIG. 7). We used E. coli GroEUES as the surrogate chaperonin system for refolding of the reporter enzymes malate dehydrogenase (MDH) and rhodanese (Rho). Briefly, binary complexes are formed between GroEL and denatured MDH or Rho, which are then refolded to their native states upon addition of ATP and the GroES co-chaperonin. Enzymatic activities of refolded native MDH or Rho act as coupled reporters of GroEUES refolding functions since in the presence of chaperonin inhibitors, no functional reporter enzymes are generated.

The next series in a line: in vitro. The note with it: human. The method, then:
HEK 293 cells were maintained in MEM medium (Corning Cellgro, 10-009 CV) supplemented with 10% FBS (Sigma, F2242). […] Cells at 80% confluence were harvested and diluted in growth medium, then 45 μL of the THLE-3 cells (1,500 cells/well) or HEK 293 cells (1,500 cells/well) were dispensed per well, and plates were sealed with “Breathe Easy” oxygen permeable membranes (Diversified Biotech) and incubated at 37° C., 5% CO2, for 24 h.

[1] abbreviates: log of IC50 (μM scale), with standard deviation.
Where [2] appears, read: read-out: Biochemical Assay IC50 GroEL/ES-dRho Refolding.

T1 sequence (P0A6F5 2-548): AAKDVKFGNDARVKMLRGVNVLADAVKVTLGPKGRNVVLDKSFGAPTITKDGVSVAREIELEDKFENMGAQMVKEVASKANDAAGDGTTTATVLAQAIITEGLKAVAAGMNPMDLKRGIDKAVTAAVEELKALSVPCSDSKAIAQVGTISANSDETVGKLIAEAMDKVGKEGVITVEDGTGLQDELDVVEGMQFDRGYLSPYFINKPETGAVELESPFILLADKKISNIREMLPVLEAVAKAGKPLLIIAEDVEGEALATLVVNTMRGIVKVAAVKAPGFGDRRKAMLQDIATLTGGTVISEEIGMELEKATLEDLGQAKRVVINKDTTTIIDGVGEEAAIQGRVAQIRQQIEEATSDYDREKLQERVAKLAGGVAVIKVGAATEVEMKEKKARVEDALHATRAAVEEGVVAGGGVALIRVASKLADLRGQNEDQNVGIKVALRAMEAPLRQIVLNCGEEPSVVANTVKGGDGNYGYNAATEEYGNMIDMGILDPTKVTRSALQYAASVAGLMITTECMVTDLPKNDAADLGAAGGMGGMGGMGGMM

On to `COc1c(Br)cccc1C(=O)Nc1ccccc1` [Compound 42, 3-Bromo-2-methoxy-N-phenylbenzamide], for which the IC50 against E. coli GroEL/ES was greater than 100 µM. On E. coli GroEL/ES (setting [1]), the “log(IC50) GroEL/ES-dRho Refolding” value is greater than 2. Also, the CC50 at 48 h in “in vitro” is greater than 100 µM.
For `Cc1cc(C(C#N)c2ccc(Cl)cc2)c(Cl)cc1NC(=O)c1cc(I)cc(I)c1O` (stereo not shown) [Closantel, closantel, reference compound], the IC50 against E. coli GroEL/ES is 1.55 µM; at E. coli GroEL/ES (setting [2]), 1.5 µM. Moreover, the CC50 at 48 h in the series “in vitro” was 52.5 µM.
In turn, `COc1c(Br)cc(Br)cc1C(=O)Nc1ccc(Sc2nc3ccccc3s2)c(Cl)c1` [Compound 29, N-(4-(Benzo[d]thiazol-2-ylthio)-3-chlorophenyl)-3,5-dibromo-2-methoxybenzamide] came in with an IC50 on E. coli GroEL/ES greater than 100 µM. Moreover, in “in vitro”, the CC50 at 48 h was greater than 100 µM.
With `O=C(Nc1ccc(Sc2nc3ccccc3s2)cc1)c1cc(Br)cc(Br)c1` [Compound 20, N-(4-(Benzo[d]thiazol-2-ylthio)phenyl)-3,5-dibromobenzamide], the IC50 at E. coli GroEL/ES was greater than 100 µM. The CC50 at 48 h in the series “in vitro” was greater than 100 µM.
`O=C(Nc1ccc(Oc2ccc(Cl)cc2)c(Cl)c1)c1cc(I)cc(I)c1O` [Rafoxanide, rafoxanide, reference compound]: the “log(IC50) GroEL/ES-dRho Refolding” value on E. coli GroEL/ES (setting [1]) amounted to 0.34 ± 0.11. Besides, the IC50 on E. coli GroEL/ES (setting [2]) worked out at 2.2 µM. In the series “in vitro”, this compound showed a CC50 at 48 h of 24 µM.
The like results for `O=C(Nc1ccccc1)c1ccccc1O` [Compound 16, 2-Hydroxy-N-phenylbenzamide] were, in that order, greater than 2, greater than 100 µM and 67.6 µM.
`COc1ccccc1C(=O)Nc1ccc(Sc2nc3ccccc3s2)cc1` [Compound 36, N-(4-(Benzo[d]thiazol-2-ylthio)phenyl)-2-methoxybenzamide]: on E. coli GroEL/ES, the IC50 is greater than 100 µM. In the series “in vitro”, the CC50 at 48 h was greater than 100 µM.
Turning to `COc1ccc(Br)cc1C(=O)Nc1cccc(Cl)c1` [Compound 39, 5-Bromo-N-(3-chlorophenyl)-2-methoxybenzamide], on E. coli GroEL/ES, the IC50 is greater than 100 µM. For the same compound, the “log(IC50) GroEL/ES-dRho Refolding” value at E. coli GroEL/ES (setting [1]) is listed as greater than 2. In addition, the CC50 at 48 h in the series “in vitro” is 93.3 µM.
The compound `COc1c(Br)cccc1C(=O)Nc1cccc(Cl)c1` [Compound 38] showed an IC50 against E. coli GroEL/ES greater than 100 µM. Further, the “log(IC50) GroEL/ES-dRho Refolding” value at E. coli GroEL/ES (setting [1]) was greater than 2. The same compound showed a CC50 at 48 h in “in vitro” greater than 100 µM.
`O=C(Nc1ccccc1)c1cccc(Br)c1O` [Compound 14, 3-Bromo-2-hydroxy-N-phenylbenzamide] registered an IC50 on E. coli GroEL/ES greater than 100 µM. At E. coli GroEL/ES (setting [1]), the “log(IC50) GroEL/ES-dRho Refolding” value was greater than 2.
For `O=C(Nc1ccccc1)c1cc(Br)ccc1O` [Compound 15, 5-Bromo-2-hydroxy-N-phenylbenzamide], the IC50 on E. coli GroEL/ES was greater than 100 µM. For the same compound, the “log(IC50) GroEL/ES-dRho Refolding” value at E. coli GroEL/ES (setting [1]) was greater than 2.
On to `COc1ccccc1C(=O)Nc1cccc(Cl)c1` [Compound 40, N-(3-Chlorophenyl)-2-methoxybenzamide], for which the IC50 against E. coli GroEL/ES is greater than 100 µM. Moreover, the “log(IC50) GroEL/ES-dRho Refolding” value at E. coli GroEL/ES (setting [1]) is listed as greater than 2. In addition, the CC50 at 48 h in the series “in vitro” is greater than 100 µM.
On to `O=C(Nc1cccc(Cl)c1)c1cc(Br)cc(Br)c1O` [Compound 9, 3,5-Dibromo-N-(3-chlorophenyl)-2-hydroxybenzamide], for which the “log(IC50) GroEL/ES-dRho Refolding” value at E. coli GroEL/ES (setting [1]) is listed as 1.67 ± 0.04. Further, on E. coli GroEL/ES (setting [2]), the IC50 stood at 47 µM. In the series “in vitro”, the CC50 at 48 h is 9.12 µM.
`O=C(Nc1ccccc1)c1cccc(Br)c1` [Compound 27, 3-Bromo-N-phenylbenzamide] gave an IC50 on E. coli GroEL/ES greater than 100 µM. Moreover, the “log(IC50) GroEL/ES-dRho Refolding” value at E. coli GroEL/ES (setting [1]) is given as greater than 2. In “in vitro”, this compound registered a CC50 at 48 h greater than 100 µM.
As to `COc1c(Br)cc(Br)cc1C(=O)Nc1cccc(Cl)c1` [Compound 37, 3,5-Dibromo-N-(3-chlorophenyl)-2-methoxybenzamide], the IC50 against E. coli GroEL/ES is greater than 100 µM. At E. coli GroEL/ES (setting [1]), the “log(IC50) GroEL/ES-dRho Refolding” value is greater than 2. Also, the CC50 at 48 h in the series “in vitro” was greater than 100 µM.
`O=C(Nc1ccc(Sc2nc3ccccc3s2)cc1)c1ccccc1` [Compound 22, N-(4-(Benzo[d]thiazol-2-ylthio)phenyl)benzamide] gave an IC50 on E. coli GroEL/ES greater than 100 µM. Further, the CC50 at 48 h in “in vitro” is greater than 100 µM.
On E. coli GroEL/ES, `O=C(Nc1ccccc1)c1cc(Br)cc(Br)c1` [Compound 26, 3,5-Dibromo-N-phenylbenzamide] showed an IC50 greater than 100 µM. Moreover, the “log(IC50) GroEL/ES-dRho Refolding” value at E. coli GroEL/ES (setting [1]) is on record as greater than 2. In the series “in vitro”, the CC50 at 48 h was greater than 100 µM.
`COc1c(Br)cccc1C(=O)Nc1ccc(Sc2nc3ccccc3s2)cc1` [Compound 34, N-(4-(Benzo[d]thiazol-2-ylthio)phenyl)-3-bromo-2-methoxybenzamide] returned a CC50 at 48 h in “in vitro” greater than 100 µM.
The compound `O=C(Nc1ccc(Sc2nc3ccccc3s2)cc1)c1cccc(Br)c1` [Compound 21, N-(4-(Benzo[d]thiazol-2-ylthio)phenyl)-3-bromobenzamide] showed an IC50 at E. coli GroEL/ES greater than 100 µM.
On E. coli GroEL/ES, `COc1ccc(Br)cc1C(=O)Nc1ccccc1` [Compound 43, 5-Bromo-2-methoxy-N-phenylbenzamide] yielded an IC50 greater than 100 µM. On E. coli GroEL/ES (setting [1]), the “log(IC50) GroEL/ES-dRho Refolding” value was greater than 2. This compound also showed a CC50 at 48 h in “in vitro” greater than 100 µM.
Compound `O=C(Nc1cccc(Cl)c1)c1ccccc1O` [Compound 12, N-(3-Chlorophenyl)-2-hydroxybenzamide] displayed an IC50 against E. coli GroEL/ES greater than 100 µM. The “log(IC50) GroEL/ES-dRho Refolding” value on E. coli GroEL/ES (setting [1]) was greater than 2.
Consider `O=C(Nc1ccc(Sc2nc3ccccc3s2)c(Cl)c1)c1ccccc1` [Compound 19, N-(4-(Benzo[d]thiazol-2-ylthio)-3-chlorophenyl)benzamide], for which, at E. coli GroEL/ES, the IC50 was greater than 100 µM.
As to `O=C(Nc1ccc(Sc2nc3ccccc3s2)c(Cl)c1)c1cc(Br)ccc1O` [Compound 3, N-(4-(Benzo[d]thiazol-2-ylthio)-3-chlorophenyl)-5-bromo-2-hydroxybenzamide], on E. coli GroEL/ES (setting [1]), the “log(IC50) GroEL/ES-dRho Refolding” value worked out at 1.04 ± 0.38. For the same compound, the IC50 at E. coli GroEL/ES (setting [2]) is 11 µM.
Compound `CO[C@H]1/C=C/O[C@@]2(C)Oc3c(C)c(O)c4c(O)c(c(/C=N/N5CCN(C)CC5)c(O)c4c3C2=O)NC(=O)/C(C)=C\C=C\[C@H](C)[C@H](O)[C@@H](C)[C@@H](O)[C@@H](C)[C@H](OC(C)=O)[C@@H]1C` [Rifampicin, rifampicin, reference compound] showed a CC50 at 48 h in the series “in vitro” of 72.4 µM.
In the case of `O=C(Nc1ccc(Sc2nc3ccccc3s2)cc1)c1cccc(Br)c1O` [Compound 6, N-(4-(Benzo[d]thiazol-2-ylthio)phenyl)-3-bromo-2-hydroxybenzamide], the IC50 was 13.8 µM at E. coli GroEL/ES (log of IC50 (μM scale), with standard deviation, read-out: log(IC50) GroEL/ES-dRho Refolding (converted)) and 14 µM at E. coli GroEL/ES (setting [2]).
`O=C(Nc1cccc(Cl)c1)c1cc(Br)cc(Br)c1` [Compound 23, 3,5-Dibromo-N-(3-chlorophenyl)benzamide] registered an IC50 against E. coli GroEL/ES greater than 100 µM. Also, the “log(IC50) GroEL/ES-dRho Refolding” value on E. coli GroEL/ES (setting [1]) is given as greater than 2.
For `O=C(Nc1ccc(Sc2nc3ccccc3s2)cc1)c1cc(Br)ccc1O` [Compound 7, N-(4-(Benzo[d]thiazol-2-ylthio)phenyl)-5-bromo-2-hydroxybenzamide], the “log(IC50) GroEL/ES-dRho Refolding” value at E. coli GroEL/ES (setting [1]) turned out to be 1.48 ± 0.11. For the same compound, the IC50 at E. coli GroEL/ES (setting [2]) worked out at 30 µM.
In the same order, the values of `O=C(Nc1ccc(Sc2nc3ccccc3s2)c(Cl)c1)c1ccccc1O` [Compound 4, N-(4-(Benzo[d]thiazol-2-ylthio)-3-chlorophenyl)-2-hydroxybenzamide] are 1.80 ± 0.27 and 63 µM.
